Like-named read-outs stand apart in the source and are kept apart here.
Tests used:
[1] = tested on: 52-week-old male SDCD rats; test: Chronic treatment per os of 52-week-old male SDCD rats (weight, insulinaemia, glycaemia, glucose tolerance, lipids); assay type: in vivo, rat; conditions: 14 days; for % weight change: 52-week-old male SDCD rats; for Basal insulinaemia % change / Cholesterol % change / Glucose tolerance K 10^-2 % change / Glycaemia % change / Triglyceride % change: vs control
Procedure: A. Study of the Effect of a Chronic Treatment Administered Per OS to 52-Week-Old Male SDCD Rats The tests are carried out on rats that have weight anomalies associated with hyperinsulism and hyperglyceridaemia. on the one hand the effect of a prolonged treatment with the product of Example 1 and the reference substances on those anomalies, and In this experiment, adult male SPRAGUE DAWLEY rats were used in groups of 5 to 12 animals. […]
a reduction in glucose tolerance, an increase in basal insulinaemia, and an increase in plasma lipids.
The housing (from 9 to 52 weeks) of these rats was effected in a chamber at a temperature regulated at from 21° to 22° C. which was subjected to a fixed cycle of light (from 7.30 to 19.30 hours) and darkness (from 19.30 to 7.30 hours). Their food consisted of a maintenance diet (UAR A 03); water and food were supplied "ad libitum", with the exception of the night-fasting preceding the tests, when the food was removed.
9 days before the beginning of the experiment (d-9), the rats are divided into groups by randomisation based on weight.
5 days before the beginning of the experiment (d-5) the rats are conditioned by administering a gum solution.
The first day of the experiment (d1), the products to be tested are administered to the rats at different doses twice per day. More precisely, the products are administered suspended in the gum between 9.00 and 10.00 hours and 16.00 and 17.00 hours for 14 days. The treated animals are weighed daily.
On day 15 the rats (fasted for 18 hours) are sacrificed by decapitation. The blood is immediately collected in a cupule. An amount (50 μl ) is transferred into 500 μl of uranyl acetate for determining the glycaemia. An amount of 3 ml is transferred into a tube containing a solution of heparin (30 μl per 1 ml of whole blood) and centrifuged to separate the plasma. Another amount of 300 μl is transferred to a tube containing 15 μl of a solution of EDTA/NaF for determining the lactates.

[2] = tested on: LDL (low-density lipoproteins); test: In vitro LDL oxidation by monocytes; assay type: cell-based; conditions: for In vitro LDL oxidation by monocytes, activity: at 10^-4 M
Procedure: (§1) A comparative study between the product of Example 1 and the reference substances (benfluorex, dimethyl biguanide) with respect to in vitro LDL oxidation was carried out.

[3] = tested on: LDL (low-density lipoproteins); test: In vitro LDL oxidation by copper; assay type: biochemical
Procedure: as §1

esters of cholesterol = test: Incorporation of oleate in the esters of cholesterol; assay type: cell-based; conditions: for inhibition at 10 µM: read-out: Incorporation of oleate in the esters of cholesterol
conscious dogs = test: Hypotensive effect in conscious dogs (sphygmomanometer on the tail); assay type: in vivo; conditions: conscious dog, 5 mg/kg p.o., n = 4
Procedure: The arterial pressure was measured by external pressure band (sphygmomanometer) on the tail of the dog, before and after treatment with the product of Example 1 at a dose of 5 mg/kg p.o..

SMILES | % weight change ([1]; 1 mg/kg x2 per day p.o.) [%] | Basal insulinaemia % change ([1]; 1 mg/kg x2 per day p.o.) [%] | Cholesterol % change ([1]; 1 mg/kg x2 per day p.o.) [%] | Glucose tolerance K 10^-2 % change ([1]; 1 mg/kg x2 per day p.o.) | Glycaemia % change ([1]; 1 mg/kg x2 per day p.o.) | Triglyceride % change ([1]; 1 mg/kg x2 per day p.o.) [%] | % weight change ([1]; 2.5 mg/kg x2 per day p.o.) [%] | Basal insulinaemia % change ([1]; 2.5 mg/kg x2 per day p.o.) [%] | Cholesterol % change ([1]; 2.5 mg/kg x2 per day p.o.) [%] | Glucose tolerance K 10^-2 % change ([1]; 2.5 mg/kg x2 per day p.o.) | Glycaemia % change ([1]; 2.5 mg/kg x2 per day p.o.) [%] | Triglyceride % change ([1]; 2.5 mg/kg x2 per day p.o.) [%] | In vitro LDL oxidation by monocytes, activity [2] | other results
CC(Cc1cccc(C(F)(F)F)c1)NCCOC(=O)c1ccccc1 (stereo not shown) [Benfluorex] | -2 | -10 | -20 | +30% | -10% | -43 | -6 | -16 | -30 | +25% | -12 | -44 | inactive | In vitro LDL oxidation by copper, activity ([3]; at 10^-4 M): inactive; inhibition at 10 µM (esters of cholesterol; at 10^-5 M): 30%
CN(C)C(=N)NC(=N)N [Dimethyl biguanide] | – | – | – | – | – | – | – | – | – | – | – | – | inactive | Incorporation of oleate in the esters of cholesterol (esters of cholesterol; at 10^-5 M): inactive
C[C@@H](Cc1cccc(C(F)(F)F)c1)NCCOC(=O)c1ccc(CCNC(=O)CC(c2ccccc2)c2ccccc2)cc1 [Example 1, (S)-1-(m-trifluoromethylphenyl)-2-{β-{4-[2-(N-(3,3-diphenylpropionyl)amino)ethyl]benzoyloxy}ethylamino}propane] | -1.4 | -15 | 0 | +23% | +8% | -10 | -3 | -26 | 0 | +30% | 0 | -20 | – | IC50 ([2]; read-out: In vitro LDL oxidation by monocytes, IC50): 50 µM; IC50 [3]: 50 µM; inhibition at 10 µM (esters of cholesterol): 70%; Decrease in arterial pressure, diastolic AP (conscious dogs): -20 to -27 mmHg; Decrease in arterial pressure, systolic AP (conscious dogs): -15 to -22 mmHg

From patent publication US5266591A, “Ethanolamine benzoate compounds” (Adir et Compagnie, priority 1991, dated 1993)
